# Laboratory results from patent US7759373B2, “Large conductance calcium-activated K channel opener” (Mitsubishi Tanabe Pharma Corporation, priority 2001, dated 2010).
# Tested on: rhythmic bladder contractions induced by substance P
# Assay: Inhibitory effect on the rhythmic bladder contractions induced by substance P in anesthetized rats
# Assay type: in vivo, rat
# Conditions: time during which frequency of rhythmic contraction was completely inhibited, 0.25 mg/kg of the compound, substance P infusion
# Method: Inhibitory effect on the rhythmic bladder contractions induced by substance P in anesthetized rats
# For the experiments, Sprague-Dawley female rats (9 to 12 weeks old) weighing between 200 to 300 g were used. After urethane anesthetization (subcutaneously administered with a dose of 1.2 g/kg), cannulae were placed in both right and left femoral veins. One intravenous catheter was used for administration of compounds, and the other was for the substance P (0.33 μg/kg/min) infusion. We also cannulated into ureter to pass urine. Polyethylene catheters were inserted into carotid artery for continuous monitoring of arterial blood pressure and heart rate. For continuous infusion, transurethral bladder catheter was inserted into the bladder through the urethra and tied in place by a ligature around the urethral orifice. One end of the catheter was attached to a pressure transducer in order to measure intravesical pressure. The other end of the catheter was used for infusion of saline into the bladder. After stabilization of blood pressure and heart rate and after the bladder was emptied, cystometry was performed by filling the bladder slowly with about 0.6 ml of saline. After about 10 minutes, intravenous infusion of substance P (0.33 μg/kg/min) was started for stabilization of the micturition reflex. Compounds were administered after stable rhythmic bladder contraction was obtained over 15 minutes. All compounds were dissolved or suspended in saline containing 0.5% Tween 80 for intravenous administration (0.1 ml/kg).
# A 100% inhibition time (minute) of the selected compounds of the present invention is shown in the following Table 65 with a rank of A, B or C. These ranges are as mentioned below. A≧20>B≧10>C (minute)
row,Structure (SMILES),100% inhibition time range
1,O=C(O)Cc1nc(-c2ccc(F)cc2)oc1-c1ccccc1 [Preparation Example 153],B (A≧20>B≧10>C (minute))
2,"Cl.Cl.N#CCCc1[nH]c(-c2ccc(F)cc2)nc1-c1cccnc1 [Preparation example 43, 5-(2-cyanoethyl)-2-(4-fluorophenyl)-4-(3-pyridyl)-imidazole dihydrochloride]",C (A≧20>B≧10>C (minute))
3,O=C(O)Cc1nc(-c2ccc3ncccc3c2)oc1-c1ccsc1 [Preparation Example 442],C (A≧20>B≧10>C (minute))
4,COc1ccc(-c2nc(-c3ccc(Cl)s3)c(CC(=O)O)o2)cc1 [Preparation Example 516],B (A≧20>B≧10>C (minute))
5,O=C(Cc1nc(-c2ccc(F)cc2)oc1-c1ccsc1)NCc1ccccn1 [Preparation Example 375],C (A≧20>B≧10>C (minute))
6,COc1ccc(-c2nc(-c3ccc(Cl)c(F)c3)c(CC(=O)O)s2)cc1 [Preparation Example 582],A (A≧20>B≧10>C (minute))
7,CSCc1ccc(-c2nc(CC(=O)O)c(-c3ccc(Cl)s3)o2)cc1 [Preparation Example 448],C (A≧20>B≧10>C (minute))
8,CCc1nc(-c2ccc(F)cc2)[nH]c1-c1ccc(C)nc1 [Preparation example 47],B (A≧20>B≧10>C (minute))
9,O=C(O)Cc1sc(-c2cc3ccccc3s2)nc1-c1ccc(Cl)s1 [Preparation Example 569],A (A≧20>B≧10>C (minute))
10,O=C(O)Cc1nc(-c2ccc(F)cc2)oc1-c1ccc2ncccc2c1 [Preparation Example 239],C (A≧20>B≧10>C (minute))
11,O=C(O)Cc1nc(-c2ccc(N3CCSC3)nc2)oc1-c1ccsc1 [Preparation Example 529],B (A≧20>B≧10>C (minute))
12,O=C(O)Cc1sc(-c2ccc(F)cc2)nc1-c1ccc(Cl)cc1 [Preparation Example 573],B (A≧20>B≧10>C (minute))
13,CSc1cccc(-c2nc(CC(=O)O)c(-c3ccc(Cl)s3)o2)c1 [Preparation Example 457],B (A≧20>B≧10>C (minute))
14,O=C(O)Cc1sc(-c2ccc(F)cc2)nc1-c1cccs1 [Preparation Example 577],B (A≧20>B≧10>C (minute))
15,CCCc1nc(-c2ccc(F)cc2)[nH]c1-c1cccnc1 [Preparation example 93],B (A≧20>B≧10>C (minute))
16,COc1ccc(-c2nc(CC(=O)O)c(-c3ccc(Cl)s3)o2)cc1O [Preparation Example 290],B (A≧20>B≧10>C (minute))
17,O=C(Cc1nc(-c2ccc(F)cc2)oc1-c1ccsc1)NS(=O)(=O)c1cccnc1 [Preparation Example 371],C (A≧20>B≧10>C (minute))
18,CCN(CC)c1ccc(-c2nc(CC(=O)O)c(-c3ccsc3)o2)cn1 [Preparation Example 530],C (A≧20>B≧10>C (minute))
19,CCSc1ccc(-c2nc(CC(=O)O)c(-c3ccc(Cl)s3)o2)cc1 [Preparation Example 449],B (A≧20>B≧10>C (minute))
20,Cc1ccccc1-c1nc(CC(=O)O)c(-c2cccs2)o1 [Preparation Example 433],C (A≧20>B≧10>C (minute))

row,Structure (SMILES),100% inhibition time range
1,CN(C)c1cnc(-c2nc(CC(=O)O)c(-c3ccc(Cl)s3)o2)cn1 [Preparation Example 628],C (A≧20>B≧10>C (minute))
2,"CNc1[nH]c(-c2ccc(F)cc2)nc1-c1ccccc1 [Preparation example 107, 5-methylamino-2-(4-fluorophenyl)-4-phenylimidazole]",B (A≧20>B≧10>C (minute))
3,"CCOC(=O)Cc1nc(-c2ccc(F)cc2)oc1-c1ccccc1 [Preparation Example 296, ethyl 2-(4-fluoro-phenyl)-5-phenyloxazol-4-yl acetate]",C (A≧20>B≧10>C (minute))
4,COc1ccc(-c2nc(-c3ccc(Cl)s3)c(CC(=O)O)s2)cn1 [Preparation Example 591],B (A≧20>B≧10>C (minute))
5,COc1ccc(-c2nc(CC(=O)O)c(-c3ccc(Cl)s3)o2)cn1 [Preparation Example 368],B (A≧20>B≧10>C (minute))
6,"CCc1[nH]c(-c2ccc(F)cc2)nc1-c1cccnc1.Cl.Cl [Preparation example 80, 5-ethyl-2-(4-fluorophenyl)-4-(3-pyridyl)imidazole dihydrochloride]",B (A≧20>B≧10>C (minute))
7,"CS(=O)(=O)NC(=O)Cc1nc(-c2ccc(F)cc2)oc1-c1ccsc1.[Na] [Preparation Example 370, N-[2-(4-fluorophenyl)-5-(3-thienyl)oxazol-4-ylacetyl]methanesulfonamide sodium salt]",C (A≧20>B≧10>C (minute))
8,Cc1csc(-c2oc(-c3ccc(F)cc3)nc2CC(=O)O)c1 [Preparation Example 164],B (A≧20>B≧10>C (minute))
9,Clc1cc(-c2ncc(-c3cccnc3)[nH]2)cs1 [Preparation example 24],C (A≧20>B≧10>C (minute))
10,CCc1nc(-c2ccc(F)cc2)[nH]c1-c1cncnc1 [Preparation example 85],C (A≧20>B≧10>C (minute))
11,O=C(O)Cc1nc(-c2ccc(C(F)(F)F)cc2)oc1-c1cccs1 [Preparation Example 430],B (A≧20>B≧10>C (minute))
12,OCc1nc(-c2ccc(Cl)cc2)[nH]c1-c1ccccc1 [Preparation Example 176],C (A≧20>B≧10>C (minute))
13,CN(C)c1ncc(-c2nc(-c3cccs3)c(CC(=O)O)s2)cn1 [Preparation Example 580],C (A≧20>B≧10>C (minute))
14,CN(C)c1ccc(-c2nc(-c3ccc(Cl)s3)c(CC(=O)O)s2)cc1 [Preparation Example 589],A (A≧20>B≧10>C (minute))
15,CCOC(=O)Cc1nc(-c2ccc(N(C)C)nc2)oc1-c1cccs1 [Preparation Example 331],A (A≧20>B≧10>C (minute))
16,CN(C)c1ncc(-c2nc(CC(=O)O)c(-c3ccc(Cl)s3)s2)cn1 [Preparation Example 611],B (A≧20>B≧10>C (minute))
17,COCc1nc(-c2ccc(C#N)cc2)[nH]c1-c1ccccc1 [Preparation example 124],B (A≧20>B≧10>C (minute))
18,"Cl.O=C(O)Cc1nc(-c2ccc(F)cc2)oc1-c1cccnc1 [Preparation Example 484, 2-(4-fluoro-phenyl)-5-(3-pyridyl)oxazol-4-yl acetic acid hydrochloride]",B (A≧20>B≧10>C (minute))
19,"CCc1[nH]c(-c2ccc(F)cc2)nc1C(=O)c1ccccn1 [Preparation example 72, 5-ethyl-2-(4-fluorophenyl)-imidazol-4-yl-(2-pyridyl) ketone]",C (A≧20>B≧10>C (minute))
20,Cc1ccc2sc(-c3nc(CC(=O)O)c(-c4ccc(Cl)s4)o3)cc2c1 [Preparation Example 450],B (A≧20>B≧10>C (minute))
